Here are results for two compounds from article PMC6219536, “Strategic single point mutation yields a solvent- and salt-stable transaminase from Virgibacillus sp. in soluble form” (Scientific Reports, 2018).

In assay [1] the target is T1, VbTA T16F (Virgibacillus pantothenticus, UniProt A0A4P1LYG1).
T1 construct: N-terminal His-tag (pET100-D-TOPO), codon-optimised, E. coli BL21(DE3), His-trap purified; native 448 residues (1350 bp); homodimer 104 kDa; residues 2-444 in crystal
Description: X-ray crystal structure, […] Å. The note with it: active site; non-covalent, no aldimine bond with K273. In kind it is binding.

Assay [2] addresses VbTA T16F (transaminase from Virgibacillus sp. 21D, T16F mutant) (Virgibacillus sp. 21D). Description: SEC; Superdex 200 (10/300) GL, 20 mM phosphate buffer pH 8.0, 150 mM NaCl, 0.2 mL/min, 4 °C, calibrated with MW markers.

T1 sequence (A0A4P1LYG1 entry or part of it, stated change not applied): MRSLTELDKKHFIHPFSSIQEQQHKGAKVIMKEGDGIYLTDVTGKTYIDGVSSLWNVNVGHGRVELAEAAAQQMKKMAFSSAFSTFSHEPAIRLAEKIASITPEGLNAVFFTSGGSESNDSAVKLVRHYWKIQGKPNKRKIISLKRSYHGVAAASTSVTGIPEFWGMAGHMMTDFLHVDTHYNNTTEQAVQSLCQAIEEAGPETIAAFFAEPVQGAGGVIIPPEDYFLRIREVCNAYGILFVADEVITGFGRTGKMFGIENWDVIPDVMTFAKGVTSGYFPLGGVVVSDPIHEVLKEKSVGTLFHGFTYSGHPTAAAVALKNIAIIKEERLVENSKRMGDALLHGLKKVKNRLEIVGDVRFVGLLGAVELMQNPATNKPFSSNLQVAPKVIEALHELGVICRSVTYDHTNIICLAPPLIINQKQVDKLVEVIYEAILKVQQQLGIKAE

In the case of `Cc1ncc(COP(=O)(O)O)c(C=O)c1O` [PLP], the “X-ray crystal structure, 2.0 Å” value in assay [1] is “One molecule of PLP was bound at the active site”.
In turn, “VbTA T16F (transaminase from Virgibacillus sp. 21D, T16F mutant) (enzyme)” gave a stoichiometry N in assay [2] of 2.
